Assay results taken from patent US9469650B2, “Melampomagnolide B derivatives” (BOARD OF TRUSTEES OF THE UNIVERSITY OF ARKANSAS, priority 2013, dated 2016).
Read-outs that look alike come from different tables or passages of the source.

Tests used:
SK-MEL-28 = assay: panel of 60 human tumor cell lines, growth inhibition (Melanoma); settings: Homo sapiens
CCRF-CEM = assay: panel of 60 human tumor cell lines, growth inhibition (Leukemia); settings: Homo sapiens
OVCAR-3 = assay: panel of 60 human tumor cell lines, growth inhibition (Ovarian Cancer)
UACC-62 = assay: panel of 60 human tumor cell lines, growth inhibition (Melanoma); settings: Homo sapiens
SN12C = assay: panel of 60 human tumor cell lines, growth inhibition (Renal Cancer); settings: Homo sapiens
HCT-116 = assay: panel of 60 human tumor cell lines, growth inhibition (Colon Cancer); settings: Homo sapiens; for GI50: HCT-116, HCT-116
OVCAR-8 = assay: panel of 60 human tumor cell lines, growth inhibition (Ovarian Cancer); settings: Homo sapiens
TK-10 = assay: panel of 60 human tumor cell lines, growth inhibition (Renal Cancer); settings: Homo sapiens; for GI50: TK-10, TK-10
KM12 = assay: panel of 60 human tumor cell lines, growth inhibition (Colon Cancer)
SNB-75 = assay: panel of 60 human tumor cell lines, growth inhibition (CNS Cancer); settings: Homo sapiens
A549/ATCC = assay: panel of 60 human tumor cell lines, growth inhibition (Non-Small Cell Lung Cancer); settings: Homo sapiens
SR = assay: panel of 60 human tumor cell lines, growth inhibition (Leukemia); settings: Homo sapiens
HT29 = assay: panel of 60 human tumor cell lines, growth inhibition (Colon Cancer); settings: for Percent Growth: HT29
SK-MEL-2 = assay: panel of 60 human tumor cell lines, growth inhibition (Melanoma); settings: Homo sapiens
MDA-MB-468 = assay: panel of 60 human tumor cell lines, growth inhibition (Breast Cancer); settings: Homo sapiens
MDA-MB-231/ATCC = assay: as above; settings: Homo sapiens

C=C1C(=O)O[C@H]2[C@H]1CC/C(COC(=O)NCCN1CCOCC1)=C\CC[C@@]1(C)O[C@@H]21 [JVM 57, ((1aR,7aS,10aS,10bS,E)-1a-methyl-8-methylene-9-oxo-1a,2,3,6,7,7a,8,9,10a,10b-decahydrooxireno[2′,3′:9,10]-cyclodeca[1,2-b]furan-5-yl)-methyl(2-morpholinoethyl)carbamate]
GI50 (SK-MEL-28; SK-MEL-28): 10.5 µM | CC50 (SK-MEL-28; SK-MEL-28, read-out: LC50): 47.2 µM | IC (TGI) (SK-MEL-28; SK-MEL-28, read-out: TGI): 22.2 µM | GI50 (CCRF-CEM): 3.03 µM | GI50 (CCRF-CEM; 5-dose assay): 3.03 µM | CC50 (CCRF-CEM; read-out: LC50): ≥ 109 µM | IC (TGI) (CCRF-CEM; read-out: TGI): 11.6 µM | GI50 (OVCAR-3; Homo sapiens, OVCAR-3): 6.2 µM | CC50 (OVCAR-3; Homo sapiens, OVCAR-3, read-out: LC50): 44.1 µM | IC (TGI) (OVCAR-3; Homo sapiens, OVCAR-3, read-out: TGI): 18.7 µM | Percent Growth (OVCAR-3; OVCAR-3, Log10 Concentration −4.0): −98% | Percent Growth (OVCAR-3; OVCAR-3, Log10 Concentration −5.0): 37% | Percent Growth (OVCAR-3; OVCAR-3, Log10 Concentration −6.0): 101% | Percent Growth (OVCAR-3; OVCAR-3, Log10 Concentration −7.0): 109% | Percent Growth (OVCAR-3; OVCAR-3, Log10 Concentration −8.0): 109% | GI50 (UACC-62; UACC-62): 11.8 µM | CC50 (UACC-62; UACC-62, read-out: LC50): 53.2 µM | IC (TGI) (UACC-62; UACC-62, read-out: TGI): 25.1 µM | GI50 (SN12C): 18.8 µM | CC50 (SN12C; read-out: LC50): > 100 µM | IC (TGI) (SN12C; read-out: TGI): 55.2 µM | GI50 (HCT-116): 2.87 µM | GI50 (HCT-116; 5-dose assay): 2.87 µM | CC50 (HCT-116; HCT-116, read-out: LC50): 38.9 µM | IC (TGI) (HCT-116; HCT-116, read-out: TGI): 10.7 µM | GI50 (OVCAR-8; OVCAR-8): 12.7 µM | CC50 (OVCAR-8; OVCAR-8, read-out: LC50): > 100 µM | IC (TGI) (OVCAR-8; OVCAR-8, read-out: TGI): 36.8 µM | Percent Growth (HL-60(TB); Log10 Concentration −4.0): −55% | Percent Growth (HL-60(TB); Log10 Concentration −5.0): 14% | Percent Growth (HL-60(TB); Log10 Concentration −6.0): 95% | Percent Growth (HL-60(TB); Log10 Concentration −7.0): 101% | Percent Growth (HL-60(TB); Log10 Concentration −8.0): 100% | GI50 (TK-10): 3.93 µM | GI50 (TK-10; 5-dose assay): 3.93 µM | CC50 (TK-10; TK-10, read-out: LC50): 38.9 µM | IC (TGI) (TK-10; TK-10, read-out: TGI): 13.9 µM | GI50 (KM12; Homo sapiens, KM12): 26.3 µM | CC50 (KM12; Homo sapiens, KM12, read-out: LC50): > 100 µM | TGI (KM12; KM12): 7.66E−5 | Percent Growth (KM12; KM12, Log10 Concentration −4.0): −12% | Percent Growth (KM12; KM12, Log10 Concentration −5.0): 95% | Percent Growth (KM12; KM12, Log10 Concentration −6.0): 100% | Percent Growth (KM12; KM12, Log10 Concentration −7.0): 106% | Percent Growth (KM12; KM12, Log10 Concentration −8.0): 102% | GI50 (SNB-75; SNB-75): 19.5 µM | CC50 (SNB-75; SNB-75, read-out: LC50): > 100 µM | IC (TGI) (SNB-75; SNB-75, read-out: TGI): > 100 µM | GI50 (A549/ATCC; A549): 28.5 µM | CC50 (A549/ATCC; A549, read-out: LC50): > 100 µM | IC (TGI) (A549/ATCC; A549, read-out: TGI): > 100 µM | GI50 (SR): 3.65 µM | CC50 (SR; read-out: LC50): > 100 µM | IC (TGI) (SR; read-out: TGI): 25.1 µM | Percent Growth (HT29; Log10 Concentration −4.0): −74% | Percent Growth (HT29; Log10 Concentration −5.0): 43% | Percent Growth (HT29; Log10 Concentration −6.0): 110% | Percent Growth (HT29; Log10 Concentration −7.0): 108% | Percent Growth (HT29; Log10 Concentration −8.0): 102% | GI50 (HT29; Homo sapiens, HT-29): 7.83 µM | CC50 (HT29; Homo sapiens, HT-29, read-out: LC50): 62.7 µM | IC (TGI) (HT29; Homo sapiens, HT-29, read-out: TGI): 23.3 µM | GI50 (SK-MEL-2; SK-MEL-2): 13.2 µM | CC50 (SK-MEL-2; SK-MEL-2, read-out: LC50): 65.5 µM | IC (TGI) (SK-MEL-2; SK-MEL-2, read-out: TGI): 29.4 µM | GI50 (MDA-MB-468; MDA-MB-468): 3.26 µM | CC50 (MDA-MB-468; MDA-MB-468, read-out: LC50): 59.1 µM | IC (TGI) (MDA-MB-468; MDA-MB-468, read-out: TGI): 14.6 µM | GI50 (MDA-MB-231/ATCC; MDA-MB-231): 13.7 µM | CC50 (MDA-MB-231/ATCC; MDA-MB-231, read-out: LC50): 64.3 µM | IC (TGI) (MDA-MB-231/ATCC; MDA-MB-231, read-out: TGI): 29.7 µM
